This is an account of results in US20220177428A1, “SPECIFICALLY SUBSTITUTED 3-(2-ALKOXY-6-ALKYL-4-PROPINYLPHENYL)-3-PYRROLIN-2-ONES AND THEIR USE AS HERBICIDES” (Bayer Aktiengesellschaft, priority 2019, published 2022).

What all share (type): in vivo
Experiment [1] deals with Abutylon threophrasti. Nature of the experiment: Pre-emergence herbicidal effect. As to conditions: 320 g ai/ha, visual score after 3 weeks. The source says:
(§1) Seeds of monocotyledonous and dicotyledonous weed plants and crop plants are laid out in sandy loam soil in wood-fibre pots and covered with soil. The compounds of the invention, formulated in the form of wettable powders (WP) or as emulsion concentrates (EC), are then applied to the surface of the covering soil as aqueous suspension or emulsion at a water application rate equating to 600 to 800 L/ha with addition of 0.2% wetting agent. After the treatment, the pots are placed in a greenhouse and kept under good growth conditions for the trial plants. The damage to the test plants is scored visually after a test period of 3 weeks by comparison with untreated controls (herbicidal activity in percent (%): 100% activity=the plants have died, 0% activity=like control plants). [table]

Experiment [2] relates to Alopecurus myosuroides. Nature of the experiment: Pre-emergence herbicidal effect. As to conditions: visual score after 3 weeks.
Source text: as §1

For experiment [3], the system named is Amaranthus retroflexus. In words: Pre-emergence herbicidal effect. To be noted: 320 g ai/ha, visual score after 3 weeks.
Source text: as §1

In experiment [4] the test system is Avena fatua. In words: Pre-emergence herbicidal effect. To be noted: visual score after 3 weeks.
Source text: as §1

The test system of experiment [5] is Digitaria sanguinalis. In words: Pre-emergence herbicidal effect. To be noted: visual score after 3 weeks.
Source text: as §1

Experiment [6] concerns Echinochloa crus-galli. In words: Pre-emergence herbicidal effect. As to conditions: visual score after 3 weeks.
Source text: as §1

The test system of experiment [7] is Lolium rigidum. In words: Pre-emergence herbicidal effect. As to conditions: visual score after 3 weeks.
Source text: as §1

The test system of experiment [8] is Matricaria inodora. In words: Pre-emergence herbicidal effect. As to conditions: 320 g ai/ha, visual score after 3 weeks.
Source text: as §1

For experiment [9], the system named is Setaria viridis. Nature of the experiment: Pre-emergence herbicidal effect. As to conditions: visual score after 3 weeks.
Source text: as §1

Experiment [10] concerns Veronica persica. Nature of the experiment: Pre-emergence herbicidal effect. As to conditions: 320 g ai/ha, visual score after 3 weeks.
Source text: as §1

Experiment [11] relates to Viola tricolor. Nature of the experiment: Pre-emergence herbicidal effect. To be noted: visual score after 3 weeks.
Source text: as §1

In experiment [12] the test system is Alopecurus myosuroides. Nature of the experiment: Post-emergence herbicidal effect. To be noted: 80 g ai/ha, visual score after about 3 weeks. The protocol:
(§2) [table] Seeds of monocotyledonous and dicotyledonous weed and crop plants are laid out in sandy loam soil in wood-fibre pots, covered with soil and cultivated in a greenhouse under good growth conditions. 2 to 3 weeks after sowing, the test plants are treated at the one-leaf stage. The compounds of the invention, formulated in the form of wettable powders (WP) or as emulsion concentrates (EC), are then sprayed onto the green parts of the plants as aqueous suspension or emulsion at a water application rate equating to 600 to 800 L/ha with addition of 0.2% wetting agent. After the test plants have been left to stand in the greenhouse under optimal growth conditions for about 3 weeks, the action of the preparations is assessed visually in comparison to untreated controls (herbicidal action in percent (%): 100% activity=the plants have died, 0% activity=like control plants).

Experiment [13] deals with Avena fatua. Nature of the experiment: Post-emergence herbicidal effect. As to conditions: 80 g ai/ha, visual score after about 3 weeks. The protocol: as §2
The test system of experiment [14] is Digitaria sanguinalis. In words: Post-emergence herbicidal effect. As to conditions: 80 g ai/ha, visual score after about 3 weeks. The protocol:
as §2

The test system of experiment [15] is Echinochloa crus-galli. In words: Post-emergence herbicidal effect. To be noted: 80 g ai/ha, visual score after about 3 weeks. The protocol: as §2
Experiment [16] deals with Lolium rigidum. Nature of the experiment: Post-emergence herbicidal effect. To be noted: 80 g ai/ha, visual score after about 3 weeks. The protocol: as §2
Experiment [17] concerns Setaria viridis. In words: Post-emergence herbicidal effect. As to conditions: 80 g ai/ha, visual score after about 3 weeks. The procedure:
as §2

`CC#Cc1cc(C)c(C2=C(O)C3(CCC(OCCC)CC3)NC2=O)c(OC)c1` (centres unmarked) [Example D2]: the “Pre-emergence activity ABUTH” value in experiment [1] was found to be 100%. Besides, the “Pre-emergence activity ALOMY” value in [2] (80 g ai/ha) is recorded as 80%; in [2] (320 g ai/ha), 100%. Further, the “Pre-emergence activity AMARE” value in experiment [3] turned out to be 100%. The “Pre-emergence activity AVEFA” value in [4] (320 g ai/ha) stood at 100%. Also, the “Pre-emergence activity DIGSA” value in experiment [5] (80 g ai/ha) and in [5] (320 g ai/ha) was 100% in each case. In addition, the “Pre-emergence activity ECHCG” value came out at 80% in experiment [6] (80 g ai/ha) and 100% in experiment [6] (320 g ai/ha). Besides, the “Pre-emergence activity LOLRI” value is reported as 90% in experiment [7] (80 g ai/ha) and 100% in experiment [7] (320 g ai/ha). The “Pre-emergence activity MATIN” value in experiment [8] came to 100%. Further, the “Pre-emergence activity SETVI” value in experiment [9] (80 g ai/ha) and in [9] (320 g ai/ha) was 100% in each case. Besides, the “Pre-emergence activity VERPE” value in experiment [10] came to 80%. The “Pre-emergence activity VIOTR” value in experiment [11] (80 g ai/ha) and in experiment [11] (320 g ai/ha) was 100% in each case. Further, the “Post-emergence activity ALOMY” value in [12] is recorded as 100%. Besides, the “Post-emergence activity AVEFA” value in experiment [13] stood at 100%. In experiment [14], the “Post-emergence activity DIGSA” value was 100%. Also, the “Post-emergence activity ECHCG” value in [15] is 100%. Besides, in [16], the “Post-emergence activity LOLRI” value came to 100%. Further, the “Post-emergence activity SETVI” value in experiment [17] is 100%.

Turning to `CC#Cc1cc(C)c(C2=C(OC(=O)OCC)C3(CCC(COC)CC3)NC2=O)c(OC)c1` (centres unmarked) [Example Q8], in experiment [1], the “Pre-emergence activity ABUTH” value turned out to be 100%. The “Pre-emergence activity ALOMY” value in experiment [2] (80 g ai/ha) and in experiment [2] (320 g ai/ha) was 100% in each case. Further, the “Pre-emergence activity AMARE” value in [3] worked out at 100%. In addition, the “Pre-emergence activity AVEFA” value came to 80% in experiment [4] (80 g ai/ha) and 100% in experiment [4] (320 g ai/ha). The “Pre-emergence activity DIGSA” value in experiment [5] (80 g ai/ha) and in experiment [5] (320 g ai/ha) was 100% each time. Besides, the “Pre-emergence activity ECHCG” value in [6] (80 g ai/ha) and in [6] (320 g ai/ha) was 100% throughout. Also, the “Pre-emergence activity LOLRI” value in experiment [7] (80 g ai/ha) and in experiment [7] (320 g ai/ha) was 100% in each case. For the same compound, the “Pre-emergence activity MATIN” value in [8] is listed as 100%. In addition, the “Pre-emergence activity SETVI” value in experiment [9] (80 g ai/ha) and in experiment [9] (320 g ai/ha) was 100% throughout. Moreover, in experiment [10], the “Pre-emergence activity VERPE” value is 100%. The “Pre-emergence activity VIOTR” value in experiment [11] (80 g ai/ha) and in [11] (320 g ai/ha) was 100% throughout. In [12], the “Post-emergence activity ALOMY” value amounted to 100%. Also, the “Post-emergence activity AVEFA” value in [13] was determined as 100%. Moreover, the “Post-emergence activity DIGSA” value in [14] is given as 100%. Besides, the “Post-emergence activity ECHCG” value in experiment [15] was 100%. The “Post-emergence activity LOLRI” value in experiment [16] is given as 100%. The “Post-emergence activity SETVI” value in experiment [17] was 100%.
